According to PubChem BioAssay AID2060910 (Molecular Pharmacology Branch, DTP, NCI, 2025):

Tested on: 242566-281-R-J2-PDC complex spheroid viability
Test: Anticancer human tumor 242566-281-R-J2-PDC patient-derived pancreatic carcinoma cell line growth inhibition [RAS]
Conditions: for IC50: curve of first compound; for viability, T/C: stronger effect = lower value
Procedure, shortened: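 Agents were tested in combination matrices in half-log decrements from a top concentration at or near clinical Cmax (10 microM if undetermined). Targets were multi-cell spheroids of tumour lines plus HUVEC and MSC stromal cells.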

[1] = second compound 0.000949 µM, first compound 0.0316 µM
[2] = second compound 0.000949 µM, first compound 0.1 µM
[3] = second compound 0.000949 µM, first compound 0.316 µM
[4] = second compound 0.000949 µM, first compound 1 µM
[5] = second compound 0.003 µM, first compound 0.0316 µM
[6] = second compound 0.003 µM, first compound 0.1 µM
[7] = second compound 0.003 µM, first compound 0.316 µM
[8] = second compound 0.003 µM, first compound 1 µM
[9] = second compound 0.00949 µM, first compound 0.0316 µM
[10] = second compound 0.00949 µM, first compound 0.1 µM
[11] = second compound 0.00949 µM, first compound 0.316 µM
[12] = second compound 0.00949 µM, first compound 1 µM
[13] = second compound 0.03 µM, first compound 0.0316 µM
[14] = second compound 0.03 µM, first compound 0.1 µM
[15] = second compound 0.03 µM, first compound 0.316 µM
[16] = second compound 0.03 µM, first compound 1 µM
[17] = second compound 0.0949 µM, first compound 0.0316 µM
[18] = second compound 0.0949 µM, first compound 0.1 µM
[19] = second compound 0.0949 µM, first compound 0.316 µM
[20] = second compound 0.0949 µM, first compound 1 µM
[21] = second compound 0.3 µM, first compound 0.0316 µM
[22] = second compound 0.3 µM, first compound 0.1 µM
[23] = second compound 0.3 µM, first compound 0.316 µM
[24] = second compound 0.3 µM, first compound 1 µM
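Note: spheroids exposed to compound for 7 days before readout.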
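Throughout, for viability, T/C: 100% = DMSO vehicle control wells.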

SMILES: CC(Nc1ccc2c(c1)OCCn1cc(N3C(=O)OCC3C(F)F)nc1-2)C(N)=O (centres undefined) + CCn1c(-c2cccnc2C(C)OC)c2c3cc(ccc31)N1CCOC(CC(NC(=O)C(C(C)C)N(C)C(=O)C3(F)CCN(C(=O)C#CC(C)(C)N(C)C)CC3)C(=O)N3CCCC(N3)C(=O)OCC(C)(C)C2)C1
- IC50 (second compound 0.000949 µM): 918 nM
- IC50 (second compound 0.003 µM): 1110 nM
- IC50 (second compound 0.00949 µM): 1050 nM
- IC50 (second compound 0.03 µM): 963 nM
- IC50 (second compound 0.0949 µM): 872 nM
- IC50 (second compound 0.3 µM): 329 nM
- viability, T/C [1]: 108%
- viability, T/C [2]: 81.6%
- viability, T/C [3]: 54.7%
- viability, T/C [4]: 55%
- viability, T/C (second compound 0.000949 µM, first compound 3.16 µM): 36.5%
- viability, T/C (second compound 0.000949 µM, first compound 10 µM): 17.4%
- viability, T/C [5]: 91.4%
- viability, T/C [6]: 79.4%
- viability, T/C [7]: 64.8%
- viability, T/C [8]: 51.2%
- viability, T/C (second compound 0.003 µM, first compound 3.16 µM): 37.7%
- viability, T/C (second compound 0.003 µM, first compound 10 µM): 18.1%
- viability, T/C [9]: 101%
- viability, T/C [10]: 79.8%
- viability, T/C [11]: 70%
- viability, T/C [12]: 54%
- viability, T/C (second compound 0.00949 µM, first compound 3.16 µM): 29.9%
- viability, T/C (second compound 0.00949 µM, first compound 10 µM): 20.8%
- viability, T/C [13]: 85.4%
- viability, T/C [14]: 83%
- viability, T/C [15]: 68.8%
- viability, T/C [16]: 52.3%
- viability, T/C (second compound 0.03 µM, first compound 3.16 µM): 26.3%
- viability, T/C (second compound 0.03 µM, first compound 10 µM): 22.9%
- viability, T/C [17]: 88.8%
- viability, T/C [18]: 77.9%
- viability, T/C [19]: 69.9%
- viability, T/C [20]: 48.6%
- viability, T/C (second compound 0.0949 µM, first compound 3.16 µM): 25.5%
- viability, T/C (second compound 0.0949 µM, first compound 10 µM): 17.7%
- viability, T/C [21]: 77.5%
- viability, T/C [22]: 67.5%
- viability, T/C [23]: 50.4%
- viability, T/C [24]: 33.1%
- viability, T/C (second compound 0.3 µM, first compound 3.16 µM): 22.7%
- viability, T/C (second compound 0.3 µM, first compound 10 µM): 16.2%

SMILES: O=C(c1ccc(F)c(F)c1Nc1ccc(I)cc1F)N1CC(O)([C@@H]2CCCCN2)C1 + CCn1c(-c2cccnc2C(C)OC)c2c3cc(ccc31)N1CCOC(CC(NC(=O)C(C(C)C)N(C)C(=O)C3(F)CCN(C(=O)C#CC(C)(C)N(C)C)CC3)C(=O)N3CCCC(N3)C(=O)OCC(C)(C)C2)C1
- IC50 (second compound 0.000949 µM): 96.3 nM
- IC50 (second compound 0.003 µM): 123 nM
- IC50 (second compound 0.00949 µM): 116 nM
- IC50 (second compound 0.03 µM): 119 nM
- IC50 (second compound 0.0949 µM): 90.7 nM
- IC50 (second compound 0.3 µM): 52.1 nM
- viability, T/C (second compound 0.000949 µM, first compound 0.00316 µM): 92.3%
- viability, T/C (second compound 0.000949 µM, first compound 0.01 µM): 90.8%
- viability, T/C [1]: 51.1%
- viability, T/C [2]: 53.2%
- viability, T/C [3]: 38.9%
- viability, T/C [4]: 19.5%
- viability, T/C (second compound 0.003 µM, first compound 0.00316 µM): 87.2%
- viability, T/C (second compound 0.003 µM, first compound 0.01 µM): 77.5%
- viability, T/C [5]: 65.7%
- viability, T/C [6]: 52.9%
- viability, T/C [7]: 38.7%
- viability, T/C [8]: 18.9%
- viability, T/C (second compound 0.00949 µM, first compound 0.00316 µM): 101%
- viability, T/C (second compound 0.00949 µM, first compound 0.01 µM): 69%
- viability, T/C [9]: 78.5%
- viability, T/C [10]: 51.1%
- viability, T/C [11]: 33.7%
- viability, T/C [12]: 21%
- viability, T/C (second compound 0.03 µM, first compound 0.00316 µM): 93.3%
- viability, T/C (second compound 0.03 µM, first compound 0.01 µM): 89.4%
- viability, T/C [13]: 76.9%
- viability, T/C [14]: 54.9%
- viability, T/C [15]: 29.3%
- viability, T/C [16]: 22.4%
- viability, T/C (second compound 0.0949 µM, first compound 0.00316 µM): 97.9%
- viability, T/C (second compound 0.0949 µM, first compound 0.01 µM): 88.1%
- viability, T/C [17]: 68%
- viability, T/C [18]: 52%
- viability, T/C [19]: 26.5%
- viability, T/C [20]: 22.1%
- viability, T/C (second compound 0.3 µM, first compound 0.00316 µM): 87%
- viability, T/C (second compound 0.3 µM, first compound 0.01 µM): 75.3%
- viability, T/C [21]: 60.6%
- viability, T/C [22]: 36.9%
- viability, T/C [23]: 24.2%
- viability, T/C [24]: 15.8%
